In patent US20260347338A1, “PYRIMIDINE/PYRIDINE DERIVATIVES OR SALTS THEREOF AND PHARMACEUTICAL COMPOSITIONS COMPRISING THE SAME” (YUHAN CORPORATION, priority 2023, published 2026):
Structures can show the parent of a compound that is named as a salt.

Target: T1, human recombinant HPK1 (Homo sapiens, UniProt Q92918)
T1 construct: purchased BPS Bioscience
Experiment: Inhibitory activity against human recombinant HPK1 (TR-FRET)
Type: biochemical
Conditions: ULight-p70S6K peptide, ATP at Km, room temperature, 1 hour, 0.32 to 1000 nM compound
How it was run: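 IC50 classes A–D use 10, 50 and 100 nM cut-offs, derived from TR-FRET signal inhibition relative to DMSO controls. Human recombinant HPK1 phosphorylated ULight-p70S6K peptide at Km ATP for 1 h, room temperature, pH 7.4; test range 0.32–1000 nM final, detection with Eu-labelled antibody after EDTA quench.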

T1 sequence (Q92918 whole entry): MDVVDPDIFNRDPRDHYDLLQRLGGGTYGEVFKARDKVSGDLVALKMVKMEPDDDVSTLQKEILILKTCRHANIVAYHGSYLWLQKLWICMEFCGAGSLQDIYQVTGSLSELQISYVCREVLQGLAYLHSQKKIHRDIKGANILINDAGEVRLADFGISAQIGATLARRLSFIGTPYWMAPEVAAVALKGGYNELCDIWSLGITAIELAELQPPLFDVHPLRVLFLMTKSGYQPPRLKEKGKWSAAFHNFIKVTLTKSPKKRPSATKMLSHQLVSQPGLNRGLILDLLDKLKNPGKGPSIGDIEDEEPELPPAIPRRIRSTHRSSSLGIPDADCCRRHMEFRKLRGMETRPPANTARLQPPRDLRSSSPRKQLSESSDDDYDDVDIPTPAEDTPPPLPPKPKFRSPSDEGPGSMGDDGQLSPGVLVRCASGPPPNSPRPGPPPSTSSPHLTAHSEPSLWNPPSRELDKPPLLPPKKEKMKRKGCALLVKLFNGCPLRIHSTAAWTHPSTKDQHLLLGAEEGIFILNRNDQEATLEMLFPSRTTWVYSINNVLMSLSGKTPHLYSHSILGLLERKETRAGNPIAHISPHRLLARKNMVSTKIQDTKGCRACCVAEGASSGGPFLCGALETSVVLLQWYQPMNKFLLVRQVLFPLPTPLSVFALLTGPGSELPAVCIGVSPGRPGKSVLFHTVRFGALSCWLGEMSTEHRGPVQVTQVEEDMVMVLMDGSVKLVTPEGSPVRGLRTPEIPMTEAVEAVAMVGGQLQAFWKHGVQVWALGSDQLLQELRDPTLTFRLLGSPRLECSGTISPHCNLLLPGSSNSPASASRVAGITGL

| SMILES | IC50 [nM] |
| --- | --- |
| COc1cccc(F)c1-c1nc(Nc2cc(N3CCC[C@H](O)C3)c(-c3cnn(C4CCOCC4)c3)cn2)ccc1[N+](=O)[O-] [Example 41, (3S)-1-(2-((6-(2-fluoro-6-methoxyphenyl)-5-nitropyridin-2-yl)amino)-5-(1-(tetrahydro-2H-pyran-4-yl)-1H-pyrazol-4-yl)pyridin-4-yl)piperidin-3-ol] | ≤ 10 |
| COc1cccc(F)c1-c1nc(Nc2cc(N3CCC[C@H](O)C3)c(C(=O)N[C@@H]3CC[C@@H](N)C3)cn2)ccc1[N+](=O)[O-] [Example 199, N-((1R,3R)-3-aminocyclopentyl)-6-((6-(2-fluoro-6-methoxyphenyl)-5-nitropyridin-2-yl)amino)-4-((S)-3-hydroxypiperidin-1-yl)nicotinamide hydrochloride] | ≤ 10 |
| COc1cccc(F)c1-c1nccc(Nc2cc(N3CCC[C@H](O)C3)c(C(=O)N[C@@H]3CCN(C)C3)cn2)n1 [Example 192, 6-((2-(2-fluoro-6-methoxyphenyl)pyrimidin-4-yl)amino)-4-((S)-3-hydroxypiperidin-1-yl)-N-((R)-1-methylpyrrolidin-3-yl)nicotinamide] | 10 to 50 |

Now from value to compound:

| IC50 [nM] | SMILES |
| --- | --- |
| ≤ 10 | COc1cccc(F)c1-c1nccc(Nc2cc(N3CC[C@H](N)C3)c(-c3cnn(C4CCOCC4)c3)cn2)n1 [Example 97, (S)-N-(4-(3-aminopyrrolidin-1-yl)-5-(1-(tetrahydro-2H-pyran-4-yl)-1H-pyrazol-4-yl)pyridin-2-yl)-2-(2-fluoro-6-methoxyphenyl)pyrimidin-4-amine hydrochloride] |
| ≤ 10 | CNCc1cc(F)c(-c2nccc(Nc3cc(N4CCC[C@H](O)C4)c(-c4cnn(C5CCOCC5)c4)cn3)n2)c(OC)c1 [Example 190, (S)-1-(2-((2-(2-fluoro-6-methoxy-4-((methylamino)methyl)phenyl)pyrimidin-4-yl)amino)-5-(1-(tetrahydro-2H-pyran-4-yl)-1H-pyrazol-4-yl)pyridin-4-yl)piperidin-3-ol] |
| ≤ 10 | COc1cccc(F)c1-c1nc(Nc2cc(N3CCC[C@H](N)C3)c(-c3cnn(CC(F)F)c3)cn2)ccc1[N+](=O)[O-] [Example 152, 4-((S)-3-aminopiperidin-1-yl)-5-(1-(2,2-difluoroethyl)-1H-pyrazol-4-yl)-N-(6-(2-fluoro-6-methoxyphenyl)-5-nitropyridin-2-yl)pyridin-2-amine hydrochloride] |
